Assay results from patent US20140336187A1, “METHODS FOR TREATING LEISHMANIASIS” (HOWARD UNIVERSITY, priority 2011, published 2014).
Where “and” joins values, the source holds several entries; their conditions need not be identical. Identical values can stand only once.

What was measured:
[1] = test system: L. donovani promastigotes; assay: Antileishmanial activity on L. donovani promastigotes (resazurin cell viability assay); assay type: cell-based, Leishmania donovani; conditions: for IC50: L. donovani promastigotes, resazurin assay, 0.03 to 44 μM, means ± S.E. of three experiments, read-out: IC50 (μM) Promastigotes; for SI Values Promastigotes: SI = IC50 (mouse fibroblast) ÷ IC50 (promastigotes)
Protocol: Approximately 5×10^5 promastigotes/ml of L. donovani Khartum strain were inoculated into Yeager's Liver infusion tryptose (YLIT) medium or Brain Heart Infusion (BHI) broth (Difco), supplemented with glucose (2.5 mg/ml), 50 U/ml Pen-Strep and 0.005 mM Hemin at 25-26° C. and subcultured bi-weekly, Mikus et al., Parasitol Int., 48(3):265-9 (2000) (Mikus and Steverding, 2000).
(§1) The Leishmanicidal properties of fifteen naphthoquinone compounds (FIG. 1) on L. donovani promastigotes proliferation were assessed by the resazurin cell viability assay. Promastigotes from axenic culture were harvested during the exponential phase of growth (at least 5-day old culture), incubated at a concentration of 2×10^5 cells/200 μl with and without dilutions of compounds in 96-well microtitre plates. Dilutions of compounds covering 0.03 μM to 44 μM were prepared. […] 20 μl Alamar Blue (12.5 mg resazurin dissolved in 100 ml distilled water (Sigma #R7017)) (Mikes and Steverding, 2000) were added to each well and plates were incubated for another 2 hrs. […] Decrease in fluorescence (inhibition), were expressed as percentage of the fluorescence of control cultures and were plotted against the concentrations of compounds. The IC50 values were calculated from the sigmoidal inhibition curves.

L. donovani amastigotes = assay: Antileishmanial activity on L. donovani amastigotes (resazurin assay); assay type: cell-based, Leishmania donovani; conditions: for IC50: Leishmania donovani, L. donovani amastigotes, 48 hrs exposure, resazurin assay, means ± S.E., read-out: IC50 (μM) Amastigotes; for SI Values Amastigotes: SI = IC50 (mouse fibroblast) ÷ IC50 (amastigotes)
Protocol: Amastigotes were grown in MAA/20 medium (Amastigote medium consisted of: M199 medium supplemented with 0.5% Tryptone broth, 0.01 mM bathocuproinedisulfonic acid, 0.108 mM L-Cysteine, 15 mM D-glucose, 0.685 mM L-glutamine, and 0.025 mM Hemin and 20% fetal calf serum (FCS) at a pH of 5.5).
Amastigotes were plated at a concentration of 2×10^5 cells/[…] 24 hrs before treatment with various compounds. Amastigotes were treated with dilutions of compounds in 96-well microtitre plates. Dilutions of compounds ranging from 0.03 μM to 44 μM were prepared and added to amastigotes. Amastigotes were exposed to compounds for 48 hrs and were incubated at 37° C. […] After the incubation period, 20 μl Alamar Blue (12.5 mg resazurin dissolved in 100 ml distilled water) (Mikes and Steverding, 2000) were added to each well and plates were incubated for another 2 hrs. […] Decrease of fluorescence (inhibition) was expressed as percentage of the fluorescence of control cultures and was plotted against the concentrations of compounds. The IC50 values were calculated from the sigmoidal inhibition curves. Amphotericin B was used as a reference drug.

[2] = test system: L. donovani promastigotes; assay: Dose and time-dependent inhibitory effect on L. donovani promastigotes (2, 4, 6, 24 hours exposure); assay type: cell-based, Leishmania donovani; conditions: Leishmania donovani, promastigotes, means ± S.E.
Protocol: as §1
A time and dose-dependent inhibitory effect of all 15 imido-substituted naphthoquinone compounds was assessed on their activity on promastigotes of L. donovani. Promastigotes were plated in 96-well plates and incubated in different concentrations of each compound (0.03 to 44 μM), incubated for two hours and viabilities assayed by the resazurin assay. A two hour exposure was assessed by calculation of IC50 values of each compound. Values are means±S.E. (Standard Error).
(§2) A time and dose-dependent inhibitory effect of all 15 imido-substituted naphthoquinone compounds was assessed on their activity on promastigotes of L. donovani. Promastigotes were plated in 96-well plates and incubated in different concentrations of each compound (0.03 to 44 μM), incubated for four hours and cell viabilities assayed by the resazurin assay. A four hour exposure was assessed by calculation of IC50 values of each compound. Values are means±S.E. (Standard Error).
Promastigotes were plated in 96-well plates and incubated in different concentrations of each compound (0.03 to 44 μM), incubated for six hours and cell viabilities assayed by the resazurin assay. A six hour exposure was assessed by calculation of IC50 values of each compound. Values are means±S.E. (Standard error).
as §2, with “incubated for twenty four hours” for “incubated for four hours”, “assay. A twenty four hour” for “assay. A four hour”

[3] = test system: NIH 3T3 BALB/c mouse fibroblast cell line; assay: Cytotoxic assessment on NIH 3T3 BALB/c mouse fibroblasts (resazurin assay); conditions: read-out: IC50 (μM) Fibroblasts; NIH 3T3 BALB/c mouse fibroblasts; 48 hrs; resazurin assay; means ± S.E.
Protocol: Fibroblasts cells (4×10^4 cells/nil and adding 100 μl per well) were incubated with different concentrations of the naphthoquinone compounds (FIGS. 1) (3, 7, 13, 29, 33, and 44 μM) for 48 hrs after which viability of live fibroblast cells was determined by the Resazurin Method using a microplate reader (Bio-Tek Instruments EL311).
NIH 3T3 mouse fibroblasts were maintained in Roswell Park Memorial Institute (RPMI) medium supplemented with 10% Fetal calf serum, 50 units/ml penicillin, 50 units/ml streptomycin B in a humidified incubator at 37° C. in the presence of 5% CO2 (Scala et al., 2010).
Assays were performed to assess the cytotoxicity of these compounds in 96-well microtiter plates, with each well containing 100 μl of RPMI medium supplemented with 10% bovine calf scrum with 50 U/ml Pen-Strep. The cells were plated at a concentration of 4×10^3 cells/well (4×10^4 cells/ml). Fibroblast cells were then incubated with compounds for 48 hrs and inspected under an inverted microscope to assure growth of the controls and sterile conditions. 10 μl of resazurin solution (12.5 mg resazurin dissolved in 100 nil distilled water) were added to each well and the plates were incubated for another 2 hrs. The plates were read with a microplate reader at 570 nm. Experiments were done at least 3 times in triplicates (Scala et al., 2010).
Cell viability was determined using Resazurin Assay. The IC50 values were calculated and expressed as means±S.E (standard error).

[4] = read-out: Antileishmanial Activity IC50 (μM) 2 hours, 2 hours exposure
[5] = read-out: Antileishmanial Activity IC50 (μM) 4 hours, 4 hours exposure
[6] = 6 hours exposure, read-out: Antileishmanial Activity IC50 (μM) 6 hours
[7] = 24 hours exposure, read-out: Antileishmanial Activity IC50 (μM) 24 hours

SMILES | IC50 ([1]; Leishmania donovani) | SI Values Promastigotes [1] | IC50 (L. donovani amastigotes) | SI Values Amastigotes (L. donovani amastigotes) | IC50 [2, 4] | IC50 [2, 5] | IC50 [2, 6] | IC50 [2, 7] | melting point | IC50 [3] | IC50 [1]
O=C1C(Cl)=C(N(C(=O)c2ccc(Cl)cc2)C(=O)c2ccc(Cl)cc2)C(=O)c2ccccc21 [IMDNQ1, 4-Chloro-N-(4-chlorobenzoyl)-N-(3-chloro-1,4-dioxo-1,4-dihydronaphthalen-2-yl)-benzamide] | 1.84 ± 0.9 µM | 2.23±1.09 and 2.23 | 11.8 ± 9.7 µM | 0.35±0.42 and 0.35 | 5.53 ± 0.3 µM | 1100 ± 50.3 µM | 19.2 ± 18.4 µM | 5.28 ± 1.8 µM | 212 to 213 °C | 4.1 ± 3.5 µM | 
COc1ccc(C(=O)N(C(=O)c2ccc(OC)cc2)C2=C(Cl)C(=O)c3ccccc3C2=O)cc1 [IMDNQ9, 2-bis-(4-methoxybenzoyl)amino-3-chloro-1,4-naphthoquinone] | 5.64 ± 0.9 µM | 0.60±0.08 and 0.60 | 4.67 ± 0.8 µM | 0.73±0.13 and 0.73 | 77.3 ± 119 µM | 23.3 ± 9.2 µM | 123 ± 35.1 µM | 7.23 ± 0.7 µM | 283 to 287 °C | 3.41 ± 1.1 µM | 
O=C1C(Cl)=C(N(C(=O)c2ccc(F)cc2)C(=O)c2ccc(F)cc2)C(=O)c2ccccc21 [IMDNQ3, N-(3-Chloro-1,4-dioxo-1,4-dihydronaphthalen-2-yl)-4-fluoro-N-(4-fluorobenzoyl)-benzamide] | 10.8 µM | 2.30±1.05 and 2.30 | 4.1 µM | 6.06±1.77 and 6.06 | 11 ± 12.9 µM | 41.35 ± 0.21 µM | 2.32 ± 1.9 µM | 3.23 ± 5.3 µM | 284 to 286 °C | 24.8 µM | 
O=C1C(Br)=C(N(C(=O)c2ccccc2Cl)C(=O)c2ccccc2Cl)C(=O)c2ccccc21 [IMDNQ5, N-(3-Bromo-1,4-dioxo-1,4-dihydronaphthalen-2-yl)-2-chloro-N-(2-chlorobenzoyl)-benzamide] | 31.3 µM | 0.15 and 0.15±0.3 | 4.67 µM | 1.01±0.21 and 1.01 | 19 ± 1.5 µM | 0.57 µM | 1.66 ± 0.5 µM | 5.85 ± 2.2 µM | 232 to 234 °C | 4.7 µM | 
COc1cc(C(=O)N(C(=O)c2cc(OC)c(OC)c(OC)c2)C2=C(Cl)C(=O)c3ccccc3C2=O)cc(OC)c1OC [IMDNQ11, 2-bis-(3,4,5-trimethoxybenzoyl)amino-3-chloro-1,4-naphthoquinone] | 22.9 ± 0.9 µM | 0.28±0.01 and 0.28 | 27.3 µM |  | 198 ± 16.8 µM | 22.7 ± 14.2 µM | 4.06 ± 1.4 µM | 8.82 ± 2 µM | 171 to 172 °C | 6.41 ± 2.9 µM | 11.85 ± 0.001 µM
